Consider two compounds from patent US4361563A, “Pyridazinone-substituted benzimidazoles and salts” (priority 1978, dated 1982).

Structures are written as SMILES.

In one data set the test system is thrombocyte aggregation. Nature of the data set: Determination of the thrombocyte aggregation according to Born and Cross (collagen-provoked, platelet-rich plasma). In kind it is cell-based, healthy test persons. The settings on record: collagen-induced aggregation. The method, then: TEST 1. DETERMINATION OF THE THROMBOCYTE AGGREGATION ACCORDING TO BORN AND CROSS [J. PHYSIOL. 170, 397 (1964)].
The thrombocyte aggregation was measured in platelet-rich plasma of healthy test persons. The decrease of the optical density was photometrically measured and recorded after addition of commercial collagen (Sigma, St. Louis, Mo., USA) which contained […] of collagen-fibrils per ml. The velocity of aggregation (Vmax) was determined by the angle of inclination of the density curve. The point of the curve, where the most light was transmitted, served for the determination of the optical density (o.d.). To provoke maximum aggregation, approximately 0.01 ml of the collagen solution was added to 1 ml of platelet-rich plasma.

The subject of another data set is cats. Nature of the data set: Determination of the hypotensive and positive inotropic activity in the cat. In kind it is in vivo. The method, then: TEST 2. DETERMINATION OF THE HYPOTENSIVE AND POSITIVE INOTROPIC ACTIVITY IN THE CAT
The tests were performed in cats which were anesthetized with pentobarbital sodium (40 mg/kg i.p.). The animals breathed spontaneously. The arterial blood pressure was measured in the aorta abdominalis by a Statham pressure transducer (P 23 Dc). The positive inotropic effect was determined by measuring the pressure in the left […] by means of a catheter tipmanometer (Millar PC 350 A). This contractility parameter dp/dtmax was registered by means of an analog differentiating circuit. The substances under test were injected into a vena femoralis. Physiological sodium […] solution or polydiol 200 was used as solvent.

A short description of data set [1]: Acute toxicity, single oral dose. Format: in vivo. The conditions noted are these: mouse, in vivo, po; read-out: Acute toxicity mg/kg p.o. The method, then: (§1) The acute toxicity of the substances tested was determined in white mice after oral adminstration of a single dose (observation time: 14 days).
The next data set concerns white mice. The data set can be described thus: Acute toxicity, single oral dose. In kind it is in vivo. The settings on record: white mice, 14 days observation. The protocol:
as §1

The mark [2] stands for this setting: Felis catus, iv, 0.5 mg/kg i.v., read-out: Change of dp/dt in %.

As a reminder, the EC50 is the concentration giving half of the maximal effect. The low end stands for a more potent agent, the high end for a less potent agent. With `COc1ccc(-c2nc3ccc(C4=NNC(=O)CC4C)cc3[nH]2)cc1` (stereo not shown) [G, 2-(4-Methoxy-phenyl)-5(6)-(5-methyl-3-oxo-4,5-dihydro-2H-6-pyridazinyl)-benzimidazole], the EC50 in the data set on thrombocyte aggregation worked out at 80 nM. Further, in the data set with cats (0.1 mg/kg i.v.), the “Change of blood pressure, second value of the pair (after the slash)” value (“Change of blood pressure … (after the slash)” below) is 0 mgm Hg and the “Duration of action” value is above 26 min. In the data set on cats (0.5 mg/kg i.v.), the “Change of blood pressure, first value of the pair (before the slash)” value is listed as -18 mgm Hg; the “Change of blood pressure … (after the slash)” value was -18 mgm Hg; the “Duration of action” value is above 72 min. In addition, in the data set on cats (Felis catus, iv, 0.1 mg/kg i.v., read-out: Change of dp/dt in %), the change in vivo at 0.1 mg/kg was determined as 23%. Besides, in the data set with cats (setting [2]), the change in vivo at 0.5 mg/kg was 64%. Moreover, the LD50 at 336 h in data set [1] was around 600 mg/kg. Besides, the animals died with white mice (600 mg/kg p.o.) is given as 3 out of 6.
For the compound `Cc1nc2cc(C3=NNC(=O)C(C)C3)ccc2[nH]1` (stereo not shown) [N, 2-Methyl-5(6)-(4-methyl-3-oxo-4,5-dihydro-2H-6-pyridazinyl)-benzimidazole, reference compound], in the data set on thrombocyte aggregation, the EC50 was 1000 nM. Further, in the data set on cats (0.5 mg/kg i.v.), the “Change of blood pressure … (after the slash)” value is listed as 3 mgm Hg and the “Duration of action” value is 22 min. The change in vivo at 0.5 mg/kg in the data set on cats (setting [2]) is 23%. Also, the LD50 at 336 h in data set [1] was above 250 mg/kg. The animals died with white mice (250 mg/kg p.o.) is given as 0 out of 10.
